Test results: patent publication US12187720B2, “Compounds for treatment of cancer” (ONCTERNAL THERAPEUTICS, INC., priority 2010, dated 2025)
Values after ≈ are worked out from the molar mass of the structure shown. Where a name gives a salt, the structure may show the parent alone. Read-outs that look alike come from different tables or passages of the source.

Legend:
[1] = Aqueous solubility, Multiscreen Solubility Filter Plate with LC-MS/MS (PBS pH 7.4); assay type: physicochemical; settings: for aqueous solubility: PBS pH 7.4
MDA-MB-435/LCCMDR1 = assay: SRB cytotoxicity assay, multidrug-resistant MDA-MB-435/LCCMDR1 melanoma cells; assay type: cell-based, human; settings: for IC50: Homo sapiens, read-out: IC50 ± SEM MDA-MB-435/LCC6MDR1
MDA-MB-435 = assay: SRB cytotoxicity assay, MDA-MB-435 parental melanoma cells; assay type: cell-based; settings: Homo sapiens, read-out: IC50 ± SEM MDA-MB-435
A375 = assay: SRB cytotoxicity assay, A375 human melanoma cells; assay type: cell-based; settings: read-out: IC50 ± SEM A375
[2] = system: melanoma and prostate cancer cell lines; assay: SRB cytotoxicity, summary or average over melanoma and prostate cancer cell lines; assay type: cell-based; settings: for IC50: average of all seven cell lines
[3] = Metabolic stability in human liver microsomes; settings: for half-life at 0.5 μM: human, liver microsomes, pH 7.4
[4] = Pharmacokinetic study in Sprague-Dawley rats; settings: for CL (systemic clearance) / Vss (volume of distribution following intravenous dosing): IV, […] (1h, 2r), 5 mg/kg (5Ha, 5Hc); for F (percent oral bioavailability), rat: rats, PO versus IV
DU145/TXR = assay: SRB growth inhibition, paclitaxel-resistant DU145/TXR cells; assay type: cell-based; settings: Homo sapiens, DU-145; Table 13A; read-out: inhibitory effects DU145/TXR
DU 145 = assay: SRB cytotoxicity assay, DU 145 prostate cancer cells; assay type: cell-based; settings: Homo sapiens
Description: (§1) Cells were stained with SRB solution.

PC-3 = assay: SRB cytotoxicity assay, PC-3 prostate cancer cells; assay type: cell-based, human; settings: Homo sapiens, PC-3
Description: as §1

LNCaP = assay: SRB cytotoxicity assay, LNCaP prostate cancer cells; assay type: cell-based, human; settings: Homo sapiens, LNCaP
Description: as §1

PPC-1 = assay: SRB cytotoxicity assay, PPC-1 prostate cancer cells; assay type: cell-based, human; settings: Homo sapiens, PPC-1
Description: as §1

WM-164 = assay: SRB cytotoxicity assay, WM-164 human melanoma cells; assay type: cell-based; settings: Homo sapiens
in vivo [5] = settings: male, ICR, mouse, plasma, po, 20 mg/kg
in vivo [6] = settings: female, Sprague-Dawley, rat, plasma
[7] = Metabolic stability in dog liver microsomes; assay type: in vitro ADME; settings: dog, dog liver microsomes, pH 7.4; Table 20; read-out: Half life in Dog liver microsome
[8] = Metabolic stability in mouse liver microsomes; assay type: in vitro ADME; settings: mouse, liver microsomes, pH 7.4, Table 20; read-out: Half life in Mouse liver microsome
[9] = Metabolic stability in rat liver microsomes; assay type: in vitro ADME; settings: rat, liver microsomes, pH 7.4; Table 20; read-out: Half life in Rat liver microsome
[10] = Table 13A, read-out: inhibitory effects DU145
[11] = Table 13A, read-out: inhibitory effects PC3
[12] = Table 13A, read-out: inhibitory effects LNCaP
[13] = Table 13B, read-out: inhibitory effects PPC1
[14] = Table 13B, read-out: inhibitory effects DU145
[15] = Table 13B, read-out: inhibitory effects PC3
[16] = Table 13B, read-out: inhibitory effects LNCaP
[17] = Table 13A, read-out: inhibitory effects PPC1

`COc1cc(C(=O)c2csc(-c3ccc4[nH]ccc4c3)n2)cc(OC)c1OC` [66a] showed an aqueous solubility [1] of 3.8 µg/mL (≈ 9.63 µM).

For `COc1cc(C(=O)c2csc(-c3ccc(CN)cc3)n2)cc(OC)c1OC` [2r, (2-(4-(Aminomethyl)phenyl)thiazol-4-yl)(3,4,5-trimethoxyphenyl)methanone hydrochloride], the “increase of solubility (fold)” value ([1]; HCl salt versus 1h) was “over 35 fold”.

`CCCc1[nH]c(Cc2cc(OC)c(OC)c(OC)c2)nc1-c1ccccc1` [102d, 4-phenyl-5-propyl-2-(3,4,5-trimethoxybenzyl)-1H-imidazole] showed an IC50 (MDA-MB-435/LCCMDR1; Table 14C) of 15900 nM and an IC50 (MDA-MB-435; Table 14C) of 11000 nM.

For `COc1cc(Cc2nc(-c3ccccc3)c(C)[nH]2)cc(OC)c1OC` [102b, 5-methyl-4-phenyl-2-(3,4,5-trimethoxybenzyl)-1H-imidazole], the IC50 (A375; Homo sapiens, A-375, Table 14C) was over 50000 nM.

For `COc1cc(/C(=N/O)c2csc(-c3ccccc3)n2)cc(OC)c1OC` [2e-cis, (Z)-(2-Phenylthiazol-4-yl)(3,4,5-trimethoxyphenyl)methanone oxime], the “fold more activity than the comparator” value ([2]; 2e-cis vs 2e-trans, 12jb vs 12kb) was 10 fold and the “half life in human liver microsome” value [3] was 35 min.

In the case of `COc1cc(C(=O)c2csc(Nc3ccccc3)n2)cc(OC)c1OC.Cl` [5Ha, (2-(phenylamino)thiazol-4-yl)(3,4,5-trimethoxyphenyl)methanone hydrochloride salt], the “CL (systemic clearance)” value [4] is reported as 17 ± 3 mL/min/kg, the “Vss (volume of distribution following intravenous dosing)” value [4] is reported as 1.4 ± 0.2 L/kg and the “F (percent oral bioavailability), rat” value [4] is reported as 11%.

With `O=C(c1ccc(F)cc1)c1c[nH]c(-c2ccc(O)cc2)n1` [12kb] the IC50 (A375; Table 12, 48 h) was 10000 nM.

`CCc1[nH]c(Cc2cc(OC)c(OC)c(OC)c2)nc1-c1ccccc1` [102c, 5-ethyl-4-phenyl-2-(3,4,5-trimethoxybenzyl)-1H-imidazole] showed an IC50 (MDA-MB-435/LCCMDR1; Table 14C) of over 50000 nM and an IC50 (MDA-MB-435; Table 14C) of over 50000 nM.

`COc1cc(C(=O)c2nc(-c3ccc(Br)cc3)c[nH]2)cc(OC)c1OC` [70d, (4-(4-bromophenyl)-1H-imidazol-2-yl)(3,4,5-trimethoxyphenyl)methanone] gave an IC50 (DU145/TXR) of 63 nM, an IC50 (DU 145; [10]) of 66 nM and an IC50 (PC-3; [11]) of 33 nM. The IC50 (LNCaP; [12]) was 15 nM.

For `COc1cc(C(=O)c2csc(Nc3ccc(F)cc3)n2)cc(OC)c1OC.Cl` [5Hc, (2-(p-fluorophenylamino)thiazol-4-yl)(3,4,5-trimethoxyphenyl)methanone hydrochloride salt], the “CL (systemic clearance)” value [4] was 13 ± 2 mL/min/kg, the “Vss (volume of distribution following intravenous dosing)” value [4] was 1.4 ± 0.2 L/kg and the “F (percent oral bioavailability), rat” value [4] was 21%. It also gave an IC50 (PPC-1; Table 6, read-out: IC50 ± SEM PPC-1) of 43 nM, an IC50 (DU 145; Table 6, read-out: IC50 ± SEM DU 145) of 70 nM and an IC50 (PC-3; Table 6, read-out: IC50 ± SEM PC-3) of 53 nM. For the same compound, the IC50 (LNCaP; Table 6, read-out: IC50 ± SEM LNCaP) was 53 nM.

For `O=C(c1ccc(F)cc1)c1cn(S(=O)(=O)c2ccccc2)c(-c2ccc(Cl)cc2)n1` [11fb, (2-(4-chlorophenyl)-1-(phenylsulfonyl)-1H-imidazol-4-yl)(4-fluorophenyl)methanone], the IC50 (MDA-MB-435/LCCMDR1; Table 14A, multidrug-resistant cell line, n = 3) was 35 ± 3 nM, the resistance index (MDA-MB-435/LCCMDR1; IC50 on MDA-MB-435/LCC6MDR1 divided by IC50 on MDA-MB-435) was 0.7 and the resistance index (MDA-MB-435/LCCMDR1; MDA-MB-435/LCCMDR1 versus MDA-MB-435) was 0.7. The IC50 [2] was 72 nM.

Compound `COc1ccc(-c2nc(C(=O)c3ccc(F)cc3)cn2S(=O)(=O)c2ccccc2)cc1` [11cb, (4-fluorophenyl)(2-(4-methoxyphenyl)-1-(phenylsulfonyl)-1H-imidazol-4-yl)methanone] has an IC50 (WM-164; WM164, 48 h, Table 13, 48 h, read-out: IC50 ± SEM WM164 (converted)) of 43 nM and an IC50 [2] of 43 nM.

`O=C(c1ccccc1)c1nc(-c2ccccc2)c[nH]1` [70aa, phenyl-(4-phenyl-1H-imidazol-2-yl)methanone] showed an IC50 (MDA-MB-435/LCCMDR1; Table 14D) of over 50000 nM, an IC50 (PPC-1; [13]) of over 50000 nM and an IC50 (MDA-MB-435; Table 14D) of over 50000 nM. The IC50 (DU 145; [14]) was over 50000 nM, the IC50 (PC-3; [15]) was over 50000 nM and the IC50 (LNCaP; [16]) was over 50000 nM.

`COc1cc(-c2csc(-c3ccccc3)n2)cc(OC)c1OC` [2i, 2-Phenyl-4-(3,4,5-trimethoxyphenyl)thiazole] showed a half-life at 0.5 μM [3] of 32 min.

Work on `CCc1[nH]c(C(=O)c2cc(OC)c(OC)c(OC)c2)nc1-c1ccccc1` [70k, (5-ethyl-4-phenyl-1H-imidazol-2-yl)(3,4,5-trimethoxyphenyl)methanone] yielded an IC50 (PPC-1; [17]) of 2080 nM, an IC50 (DU 145; [10]) of 5080 nM and an IC50 (PC-3; [11]) of 3650 nM. The IC50 (LNCaP; [12]) was 2030 nM.

In the case of `COc1cc(C(=O)c2c[nH]c(-c3ccc(Cl)cc3)n2)cc(OC)c1OC` [12fa, (2-(4-chlorophenyl)-1H-imidazol-4-yl)(3,4,5-trimethoxyphenyl)methanone], the bioavailability (in vivo [5]) is reported as 62%, the IC50 [2] is reported as 43 nM and the bioavailability (in vivo [6]; oral) is reported as 35%. For the same compound, the bioavailability (in vivo [6]; po, 10 mg/kg) was 35%, the half-life at 0.5 μM [7] was 26 min and the half-life at 0.5 μM [3] was 56 min. The half-life at 0.5 μM [8] was 23 min and the half-life at 0.5 μM [9] was 46 min.

Compound `O=C(c1ccc(F)cc1)c1nc(-c2ccc(F)cc2)c[nH]1` [70r, (4-fluorophenyl)(4-(4-fluorophenyl)-1H-imidazol-2-yl)methanone] has an IC50 (PPC-1; [13]) of over 50000 nM, an IC50 (DU 145; [14]) of over 50000 nM and an IC50 (PC-3; [15]) of over 50000 nM. For the same compound, the IC50 (LNCaP; [16]) was over 50000 nM.

`COc1cc(C(=O)c2nc(-c3ccc(O)cc3)c[nH]2)cc(OC)c1OC` [70i, (4-(4-hydroxyphenyl)-1H-imidazol-2-yl)(3,4,5-trimethoxyphenyl)methanone] showed an IC50 (PPC-1; [17]) of 122 nM, an IC50 (DU 145; [10]) of 518 nM and an IC50 (PC-3; [11]) of 155 nM. The IC50 (LNCaP; [12]) was 219 nM.

For “5-Phenyl-2-(3,4,5-trimethoxybenzyl)-1H-imidazole and 4-phenyl-2-(3,4,5-trimethoxybenzyl)-1H-imidazole [102a]”, the IC50 (A375; Table 14C) was 10200 ± 392 nM.

For `COc1cc(C(=O)c2csc(Nc3ccc(F)cc3)n2)cc(OC)c1OC` [5c, (2-(p-fluorophenylamino)thiazol-4-yl)(3,4,5-trimethoxyphenyl)methanone], the aqueous solubility [1] was 19 µg/mL (≈ 48.9 µM).

For `COc1cc(C(=O)c2nc(-c3cc(OC)c(OC)c(OC)c3)c[nH]2)cc(OC)c1OC` [70q, 3,4,5-trimethoxyphenyl-(4-(3,4,5-trimethoxyphenyl)-1H-imidazol-2-yl)methanone], the IC50 (MDA-MB-435/LCCMDR1; Table 14D) was 211 nM, the IC50 (PPC-1; [13]) was over 50000 nM and the IC50 (MDA-MB-435; Table 14D) was 149 nM. The IC50 (DU 145; [14]) was over 50000 nM, the IC50 (PC-3; [15]) was over 50000 nM and the IC50 (LNCaP; [16]) was over 50000 nM.

`CN(C)c1ccc(-c2nc(C(=O)c3ccc(F)cc3)c[nH]2)cc1` [12gb, (2-(4-(dimethylamino)phenyl)-1H-imidazol-4-yl)(4-fluorophenyl)methanone] showed an IC50 (WM-164; WM164, 48 h, Table 12, 48 h, read-out: IC50 ± SEM WM164 (converted)) of 62 ± 8 nM and an IC50 (A375; Homo sapiens, A-375, 48 h, Table 12, 48 h) of 56 ± 7 nM.

For `COc1cc(C(=O)c2csc(-c3ccccc3)n2)cc(OC)c1O` [compound 34], the IC50 (WM-164; WM164, Table 6A, read-out: IC50 WM164) was over 10000 nM and the IC50 (LNCaP; Table 6A, read-out: IC50 LNCaP) was over 10000 nM.

In the case of `COc1cc(C(=O)c2nc(-c3ccc(C)cc3)c[nH]2)cc(OC)c1OC` [70f, (4-p-tolyl-1H-imidazol-2-yl)(3,4,5-trimethoxyphenyl)methanone], the IC50 (DU145/TXR) is reported as 21 nM and the IC50 (LNCaP; [12]) is reported as 13 nM.

In the case of `COc1cc(C(=O)c2csc(Nc3ccccc3)n2)cc(OC)c1OC` [5a, (2-(phenylamino)thiazol-4-yl)(3,4,5-trimethoxyphenyl)methanone], the aqueous solubility [1] is reported as 15 µg/mL (≈ 40.5 µM).

In the case of `COc1cc(-c2c[nH]c(C(=O)c3ccc(Br)cc3)n2)cc(OC)c1OC` [70z, 4-bromophenyl(4-(3,4,5-trimethoxyphenyl)-1H-imidazol-2-yl)methanone], the IC50 (PPC-1; [13]) is reported as 107 nM, the IC50 (DU 145; [14]) is reported as 430 nM and the IC50 (PC-3; [15]) is reported as 371 nM. For the same compound, the IC50 (LNCaP; [16]) was 131 nM.
